In data set [1] the target is human serum albumin (Homo sapiens, UniProt P02768). Put plainly: Binding to human serum albumin. Type of data set: in vitro ADME.
Data set [2] has as its target T1, neuroserpin (Homo sapiens, UniProt Q99574).
T1 sequence (Q99574 17-410): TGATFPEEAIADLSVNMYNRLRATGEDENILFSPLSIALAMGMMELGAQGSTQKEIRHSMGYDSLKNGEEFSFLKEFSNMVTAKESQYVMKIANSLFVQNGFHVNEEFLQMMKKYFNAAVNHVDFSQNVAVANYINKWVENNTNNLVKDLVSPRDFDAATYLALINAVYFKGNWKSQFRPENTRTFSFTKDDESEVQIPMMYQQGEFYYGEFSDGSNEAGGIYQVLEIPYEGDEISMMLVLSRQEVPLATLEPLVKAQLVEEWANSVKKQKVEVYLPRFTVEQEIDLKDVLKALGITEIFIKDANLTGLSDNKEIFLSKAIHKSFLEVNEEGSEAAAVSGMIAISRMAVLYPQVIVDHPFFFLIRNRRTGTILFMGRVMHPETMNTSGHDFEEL
Nature of the data set: Serpin inhibitory activity, neuroserpin. Type of data set: biochemical. To be noted: incubation with 50 μM. From the text: In order to investigate suitability of Compound 1 for progression into in vivo studies and the potential for taking forward as a clinical candidate for testing in human, Compound 1 was profiled against a panel of in vitro assays for off-targets considered predictive of potential safety liabilities. […] The measured potency of these marginal activities were at least 10-fold below the cellular activity of Compound 1 at blocking Z α1-antitrypsin polymerisation (pEC50 6.3). Loss of inhibitory activity represents a means by which possible off-target engagement with other serpins can be evaluated. However in contrast to α1-antitrypsin upon incubation with 50 μM Compound 1 the inhibitory activity of the homologues antithrombin, neuroserpin and antichymotrypsin was not affected.

SMILES strings stand for the structures.

Sequence of human serum albumin (P02768 25-609): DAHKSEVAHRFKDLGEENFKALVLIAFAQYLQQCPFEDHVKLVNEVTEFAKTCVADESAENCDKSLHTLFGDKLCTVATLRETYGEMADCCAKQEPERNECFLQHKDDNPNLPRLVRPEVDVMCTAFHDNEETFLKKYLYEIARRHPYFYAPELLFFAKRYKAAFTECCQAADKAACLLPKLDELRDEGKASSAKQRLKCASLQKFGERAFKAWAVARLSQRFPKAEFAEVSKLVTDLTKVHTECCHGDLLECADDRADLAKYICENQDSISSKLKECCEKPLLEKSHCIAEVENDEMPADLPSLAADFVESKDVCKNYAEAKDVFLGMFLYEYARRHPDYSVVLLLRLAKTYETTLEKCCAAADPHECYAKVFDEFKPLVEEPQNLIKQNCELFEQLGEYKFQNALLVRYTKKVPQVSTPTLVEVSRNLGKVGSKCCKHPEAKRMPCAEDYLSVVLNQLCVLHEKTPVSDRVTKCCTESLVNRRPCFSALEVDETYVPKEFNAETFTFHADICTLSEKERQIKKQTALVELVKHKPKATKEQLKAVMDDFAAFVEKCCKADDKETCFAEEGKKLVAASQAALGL

`CCC[C@@H](NC(=O)c1cccc2c1CC(=O)N2)[C@@H](O)c1cccc(F)c1C` [Compound 1, N-[(1S,2R)-1-(3-fluoro-2-methylphenyl)-1-hydroxypentan-2-yl]-2-oxo-2,3-dihydro-1H-indole-4-carboxamide]: in data set [1], the “binding to human serum albumin” value is on record as 84.2%. Moreover, in data set [2], the “inhibitory activity of neuroserpin” value is given as “not affected”.

(Values after patent US11919856B2, “Compounds” (UCL BUSINESS LTD, priority 2018, dated 2024).)
